# From patent US20120040976A1, “SMALL MOLECULE IMMUNOMODULATORS FOR ALZHEIMER'S DISEASE” (HUMAN BIOMOLECULAR RESEARCH INSTITUTE, priority 2008, published 2012)
# What was measured:
# Average solubility = type: physicochemical
# MGAT3 = MGAT3 transcription ratio, AD patient / control PBMCs (qPCR); type: cell-based, human; set-up: key: Dash (−) indicates minimal effect; (+) indicates a ratio of 1.0-1.5; (++) indicates a ratio of 1.5-2.0; (+++ to ++++) indicates a ratio of 2.0 and above; (+++ to ++++) indicates a ratio of 2.0 and above; conditions: Aβ stimulation
# Protocol: (§1) qPCR reactions of cultured monocyte cDNAs. One μL total cellular cDNA per reaction is used in triplicate reactions for each test gene, and for each culture treatment. SYBR-Green reactions were run on a Continuous Fluorescence real-time thermocycler and analyzed. Cycle threshold (Ct) values are recorded for each replicate reaction, and are then averaged and normalized against mean Ct values from one or more control genes. Fold-expression differences relative to untreated cells are determined using the 2^−ΔΔCt method as previously described. Data from the curcumin concentration range are plotted in order to determine EC50 values (concentrations producing one-half maximal stimulant activity), which are used for comparisons of potency between different compounds. Data are also evaluated for each gene with regard to sensitivity, maximally effective concentration of curcuminoid, response to Aβ, and overall magnitude of fold-expression changes.
# (§2) MGAT3 and/or TLR transcription were tested by qPCR in human monocyte cells treated with curcuminoids and compared the results to those treated with vehicle (Table 7). As discussed above, activation or up-regulation of macrophage MGAT3 or TLR's results in many functional outcomes, including the enhancement of […] and removal of Aβ, increased apoptosis, secretion of inflammatory cytokines, and other anti-AD antimicrobial activities. […] Thus, the ratio of MGAT3 or TLR transcription upon Aβ stimulation of human monocytes versus vehicle treatment provides an indicator and sensitive method to test the in vitro efficacy of drug candidates. […] The relative biological activity of the curcumin analogs in AD patient and control cells was ascertained in the in vitro Aβ assay described above (see Example 2).
# [1] = Chemical stability (H2O, pH 7.4); type: physicochemical
# [2] = Metabolic stability in human liver microsomes; type: in vitro ADME; conditions: read-out: Half life, t1/2 HLM
# [3] = Metabolic stability in human S9 fraction; type: in vitro ADME; conditions: read-out: Half life, t1/2 S9
# TLR 3 = TLR 3 transcription ratio, AD patient / control PBMCs (qPCR); type: cell-based, human; conditions: Aβ stimulation
# Protocol: as §1, §2
# TLR 2 = TLR 2 transcription ratio, AD patient / control PBMCs (qPCR); type: cell-based, human; conditions: Aβ stimulation
# Protocol: as §1, §2
# TLR 4 = TLR 4 transcription ratio, AD patient / control PBMCs (qPCR); type: cell-based, human; conditions: Aβ stimulation
# Protocol: as §1, §2
# [4] = water (aqueous solution), pH 7.4, read-out: Chemical stability t1/2 pH 7.4 (converted)
# [5] = water, H2O, read-out: Chemical stability t1/2 H2O (converted)
SMILES,IC50 (Anti-oxidant activity),half-life ([2]; human),half-life [3],Relative ratio of MGAT3 transcription in AD patient / control PBMC's (MGAT3),also measured
"CC/C(C(=O)/C=C/c1ccc(N(C)C)cc1)=C(O)\C=C\c1ccc(N(C)C)cc1 [Compound 9, 1,7-bis(4-Dimethylaminophenyl)-4-ethyl-hepta-1,6-diene-3,5-dione]",55.3 µM,,,,
"CC/C(C(=O)/C=C/c1ccc(N(C)C)cc1OC)=C(O)\C=C\c1ccc(N(C)C)cc1OC [Compound 13, 1,7-Bis(4-(dimethylamino)-2-methoxyphenyl)-4-ethyl-hepta-1,6-diene-3,5-dione]",67.4 µM,,,,
"CC(=O)Oc1ccc(/C=C/C(=O)/C=C(O)/C=C/c2ccc(OC(C)=O)cc2)cc1 [Compound 17, Acetic acid 4-[7-(4-acetoxy-phenyl)-5-hydroxy-3-oxo-hepta-1,4,6-trienyl]-phenyl ester]",,,,−,
"CC(C)(C)C(=O)Oc1ccc(/C=C/C(=O)/C=C(O)/C=C/c2ccc(OC(=O)C(C)(C)C)cc2)cc1 [Compound 18, 2,2-Dimethyl-propionic acid 4-{7-[4-(2,2-dimethyl-propionyloxy)-phenyl]-3,5-dioxo-hepta-1,6-dienyl}-phenyl ester]",,,,−,
"O=C(/C=C(O)/C=C/c1cccc(O)c1)/C=C/c1cccc(O)c1 [Compound 19, 5-Hydroxy-1,7-bis-(3-hydroxyphenyl)-hepta-1,4,6-trien-3-one]",,13.3 min,6.6 min,+ ((+) indicates a ratio of 1.0-1.5),"half-life [1, 4]: 66.2 min; half-life [1, 5]: 22.8 min"
"COc1ccc(/C=C/C(=O)/C=C(O)/C=C/c2ccc(OC)c(O)c2)cc1O [Compound 21, 5-Hydroxy-1,7-bis-(3-hydroxy-4-methoxyphenyl)-hepta-1,4,6-trien-3-one]",,5 min,6.6 min,+ ((+) indicates a ratio of 1.0-1.5),
"COc1cc(O)ccc1/C=C/C(=O)/C=C(O)/C=C/c1ccc(O)cc1OC [Compound 22, 5-Hydroxy-1,7-bis-(4-hydroxy-2-methoxyphenyl)-hepta-1,4,6-trien-3-one]",,31.5 min,2.4 min,++ ((++) indicates a ratio of 1.5-2.0),
"O=C(/C=C(O)/C=C/c1ccc(O)c(Cl)c1)/C=C/c1ccc(O)c(Cl)c1 [Compound 24, 1,7-bis-(3-Chloro-4-hydroxyphenyl)-5-Hydroxy-hepta-1,4,6-trien-3-one]",,,,−,
"COc1ccccc1/C=C/C(=O)/C=C(O)/C=C/c1ccccc1OC [Compound 25, 5-Hydroxy-1,7-bis-(2-methoxyphenyl)-hepta-1,4,6-trien-3-one]",,72.8 min,10.9 min,++++ ((+++ to ++++) indicates a ratio of 2.0 and above),Relative ratio of TLR 3 transcription in AD patient / control PBMC's (TLR 3): TLR 3 ++ ((++) indicates a ratio of 1.5-2.0); Relative ratio of TLR 2 transcription in AD patient / control PBMC's (TLR 2): TLR 2 +++ ((+++ to ++++) indicates a ratio of 2.0 and above); Relative ratio of TLR 4 transcription in AD patient / control PBMC's (TLR 4): TLR 4 + ((+) indicates a ratio of 1.0-1.5)
"O=C(/C=C(O)/C=C/c1ccccc1)/C=C/c1ccccc1 [Compound 27, 5-Hydroxy-1,7-diphenylhepta-1,4,6-trien-3-one]",,,,+ ((+) indicates a ratio of 1.0-1.5),
"Cc1ccc(/C=C/C(=O)/C=C(O)/C=C/c2ccc(C)cc2)cc1 [Compound 28, 5-Hydroxy-1,7-ditolylhepta-1,4,6-trien-3-one]",,,,++ ((++) indicates a ratio of 1.5-2.0),
COc1ccc(F)cc1/C=C/C(O)=C/C(=O)/C=C/c1ccc(N(C)C)cc1 [Compound 31],,,,++ ((++) indicates a ratio of 1.5-2.0),Relative ratio of TLR 3 transcription in AD patient / control PBMC's (TLR 3): TLR 3 ++ ((++) indicates a ratio of 1.5-2.0); Relative ratio of TLR 2 transcription in AD patient / control PBMC's (TLR 2): TLR 2 ++ ((++) indicates a ratio of 1.5-2.0); Relative ratio of TLR 4 transcription in AD patient / control PBMC's (TLR 4): TLR 4 ++ ((++) indicates a ratio of 1.5-2.0)
NCCCCC(N)C(=O)Oc1ccc(/C=C/C(=O)C2CCC/C(=C\c3ccc(OC(=O)C(N)CCCCN)cc3)C2=O)cc1 (stereo not drawn) [Compound 38],> 250 µM,,33.6 min,+ ((+) indicates a ratio of 1.0-1.5),Chemical stability H2O (stable/unstable) ([1]; H2O): unstable (stability half-lives less than 5 minutes); Chemical stability pH 7.4 (stable/unstable) ([1]; pH 7.4): unstable (stability half-lives less than 5 minutes); half-life ([2]; value given in h): > 60 min

# The next lines start with results.
IC50 (Anti-oxidant activity),half-life ([2]; human),half-life [3],SMILES,Relative ratio of MGAT3 transcription in AD patient / control PBMC's (MGAT3),also measured
> 250 µM,,,"O=C(/C=C(\O)CCc1ccc(O)cc1)CCc1ccc(O)cc1 [Compound 5, 5-Hydroxy-1,7-bis(4-hydroxyphenyl)hept-4-en-3-one]",,Avg. Solubility (Average solubility): insol
> 250 µM,60.6 min,35.2 min,"O=C1/C(=C(O)/C=C/c2ccc(O)cc2)CCC/C1=C\c1ccc(O)cc1 [Compound 6, 2-(4-Hydroxybenzylidene)-6-(3-(4-hydroxyphenyl)acryloyl)cyclohexanone]",+++ ((+++ to ++++) indicates a ratio of 2.0 and above),"half-life [1, 4]: 436 min; half-life [1, 5]: 244 min"
> 250 µM,,,COc1ccc(F)cc1/C=C/C(O)=C1\CCC/C(=C\c2cc(F)ccc2OC)C1=O [Compound 11],+ ((+) indicates a ratio of 1.0-1.5),
> 250 µM,,,"O=C1C(=Cc2ccc(O)cc2)COCC1=Cc1ccc(O)cc1 [Compound 15, 3,5-bis(4-Hydroxybenzylidene)dihydro-2H-pyran-4(3H)-one]",,
,9 min,10.9 min,"COc1ccc(/C=C/C(=O)/C=C(O)/C=C/c2ccc(OC)cc2)cc1 [Compound 16, 5-Hydroxy-1,7-bis-(4-methoxy-phenyl)-hepta-1,4,6-trien-3-one]",−,
,41.5 min,22.7 min,"CN(C)c1ccc(/C=C/C(=O)/C=C(O)/C=C/c2ccc(N(C)C)cc2)cc1 [Compound 20, 1,7-bis-(4-Dimethylaminophenyl)-5-hydroxy-hepta-1,4,6-trien-3-one]",++++ ((+++ to ++++) indicates a ratio of 2.0 and above),solubility (Average solubility): 0.23 µg/mL; Chemical stability H2O (stable/unstable) ([1]; H2O): stable (stability half-lives greater than 5 hours); Chemical stability pH 7.4 (stable/unstable) ([1]; pH 7.4): stable (stability half-lives greater than 5 hours)
,97.1 min,75.4 min,"CSc1ccc(/C=C/C(=O)/C=C(O)/C=C/c2ccc(SC)cc2)cc1 [Compound 29, 1,7-bis(4-Methylthiophenyl)-5-hydroxyhepta-1,4,6-trien-3-one]",++++ ((+++ to ++++) indicates a ratio of 2.0 and above),
> 250 µM,,33.2 min,CC(C)C(N)C(=O)Oc1ccc(/C=C/C(=O)C2CCC/C(=C\c3ccc(OC(=O)C(N)C(C)C)cc3)C2=O)cc1 (stereo not drawn) [Compound 37],++ ((++) indicates a ratio of 1.5-2.0),"half-life [1, 4]: < 16 min; half-life [1, 5]: 95.9 min; half-life ([2]; value given in h): > 60 min"
